Source: patent US20230312562A1, “TETRAHYDRO-3H-PYRAZOLO QUINOLONE AND TETRAHYDRO-3H-PYRROLO[3,2-F]QUINOLINE -CONTAINING COMPOUNDS AND USES THEREOF” (Purdue Research Foundation, priority 2020, published 2023)
Marks after values point to notes of the source that are not given here.

Legend:
Type in all cases: cell-based
SF-295 = experiment: NCI-60 sulforhodamine B assay, SF-295; settings: SF-295, CNS, 48 h; for GI50: Homo sapiens
Protocol: (§1) Compounds HSD1787, 22, 23 and 27 were sent to the National Cancer Institute (NCI), Bethesda, Maryland (Drug Evaluation Branch), to evaluate the effects of compounds on the NCI-60 cell panel. According to the NCI protocol, the compounds were evaluated at five concentrations (10-fold dilutions) with the highest concentration being 100 μM and the incubation period was 48 h. A sulforhodamine B assay was used to assay the effects of the compounds on the cancer cells. […] The most sensitive cell lines (total growth inhibition, TGI, could be achieved with concentrations less than 1 μM of some of the compounds) were MDA-MB-435 (melanoma), SF-539 (glioma), A498 (renal), MDA-MB-468 (breast), OVCAR-3 (ovarian), NCI-H522 (non-small cell lung cancer). On the other hand, UACC-257 and SK-MEL-28 (both melanoma), TK-10 (renal), OVCAR-4 (ovarian) and T-47D (breast) were resistant to the compounds as 10 μM could not cause total growth inhibition (Table 2). […] This is in line with current appreciation that tumor mutational burden and not necessarily the anatomical origin of the tumor determines treatment strategies or outcomes.
(§2) According to the National Cancer Institute, Bethesda, Maryland (the protocol of the Drug Evaluation Branch), the effects of compounds are measured as follows: Cell suspensions are diluted to a target cell density of 5000-40,000 cells per well (based on cell growth characteristics) in a 96-well microtiter plates. The test compounds were evaluated at five concentrations (10-fold dilutions) with the highest concentration being 100 μM. The incubation period was 48 h under 5% carbon dioxide atmosphere and 100% humidity. A sulforhodamine B assay was used to assay the cells. Optical densities of the wells were read by a plate reader the optical densities were processed into GI50 (the concentration that causes 50% growth inhibition).
(§3) The NCI renamed the IC50 value, the concentration of compound that causes 50% growth inhibition, as follows:
(§4) The control is the well not treated with test agent (https://dtp.cancer.gov/databases_tools/docs/compare/compare_methodology.htm).

K-562 = experiment: NCI-60 sulforhodamine B assay, K-562; settings: Homo sapiens, K562; K-562, leukemia, 48 h
Protocol: as §1, §2, §3, §4

MCF7 = experiment: NCI-60 sulforhodamine B assay, MCF7; settings: MCF7, breast, 48 h; for GI50: Homo sapiens
Protocol: as §1, §2, §3, §4

A498 = experiment: NCI-60 sulforhodamine B assay, A498; settings: A498, renal, 48 h; for GI50: Homo sapiens
Protocol: as §1, §2, §3, §4

SF-539 = experiment: NCI-60 sulforhodamine B assay, SF-539; settings: SF-539, CNS, 48 h; for GI50: Homo sapiens
Protocol: as §1, §2, §3, §4

Ovcar-4 = experiment: NCI-60 sulforhodamine B assay, Ovcar-4; settings: Homo sapiens; Ovcar-4, ovarian, 48 h
Protocol: as §1, §2, §3, §4

TK-10 = experiment: NCI-60 sulforhodamine B assay, TK-10; settings: Homo sapiens; TK-10, renal, 48 h
Protocol: as §1, §2, §3, §4

Ovcar-3 = experiment: NCI-60 sulforhodamine B assay, Ovcar-3; settings: Ovcar-3, ovarian, 48 h; for GI50: Homo sapiens
Protocol: as §1, §2, §3, §4

SK-MEL-28 = experiment: NCI-60 sulforhodamine B assay, SK-MEL-28; settings: Homo sapiens; SK-MEL-28, melanoma, 48 h
Protocol: as §1, §2, §3, §4

NCI60 cell lines = experiment: NCI-60 cell panel, summary statements; settings: melanoma, renal, breast, ovarian and leukemia cancer cell lines; read-out: GI50 values as low as
Protocol: as §1, §2, §3, §4

NCI-H522 = experiment: NCI-60 sulforhodamine B assay, NCI-H522; settings: NCI-H522, non-small cell lung, 48 h; for GI50: Homo sapiens
Protocol: as §1, §2, §3, §4

Ovcar-8 = experiment: NCI-60 sulforhodamine B assay, Ovcar-8; settings: Homo sapiens; Ovcar-8, ovarian, 48 h
Protocol: as §1, §2, §3, §4

MDA-MB-468 = experiment: NCI-60 sulforhodamine B assay, MDA-MB-468; settings: MDA-MB-468, breast, 48 h; for GI50: Homo sapiens
Protocol: as §1, §2, §3, §4

MDA-MB-231 = experiment: Inhibition of MDA-MB-231 viability/growth at 1 μM, 72 h; settings: Homo sapiens, MDA-MB-231; 1 μM compound, 72 h incubation
UACC-257 = experiment: NCI-60 sulforhodamine B assay, UACC-257; settings: Homo sapiens; UACC-257, melanoma, 48 h
Protocol: as §1, §2, §3, §4

MDA-MB-435 = experiment: NCI-60 sulforhodamine B assay, MDA-MB-435; settings: MDA-MB-435, melanoma, 48 h; for GI50: Homo sapiens
Protocol: as §1, §2, §3, §4

SR = experiment: NCI-60 sulforhodamine B assay, SR; settings: Homo sapiens, lymphoma, 48 h
Protocol: as §1, §2, §3, §4

T-47D = experiment: NCI-60 sulforhodamine B assay, T-47D; settings: Homo sapiens, T47D, breast, 48 h
Protocol: as §1, §2, §3, §4

NCI/ADR-RES = experiment: NCI-60 sulforhodamine B assay, NCI/ADR-RES; settings: ovarian, 48 h; for GI50: Homo sapiens
Protocol: as §1, §2, §3, §4

## Nc1n[nH]c2cc(F)c([C@@H]3Nc4ccc5[nH]ncc5c4[C@H]4[C@@H]5CC[C@@H](C5)[C@H]43)cc12 (stereo in doubt) [Compound 27, 6-Fluoro-5-(6,7,7a,8,9,10,11,11a-octahydro-3H-8,11-methanopyrazolo[4,3-a]phenanthridin-7-yl)-1H-indazol-3-amine]
SF-295
  GI50: 0.139 µM
  TGI (total growth inhibition): 5.77 µM
K-562
  GI50: 0.0922 µM
MCF7
  GI50: 0.137 µM
  TGI (total growth inhibition): 8.44 µM
A498
  TGI (total growth inhibition): 0.280^d μM
  GI50: 0.0714 µM
SF-539
  GI50: 0.114 µM
  TGI (total growth inhibition): 0.304^d μM
Ovcar-4
  GI50: 0.416 µM
TK-10
  GI50: 2.02 µM
Ovcar-3
  GI50: 0.138 µM
SK-MEL-28
  GI50: 0.352 µM
NCI60 cell lines
  GI50: ≥ 0.03 µM
NCI-H522
  GI50: 0.109 µM
  TGI (total growth inhibition): 0.544^d μM
Ovcar-8
  GI50: 0.194 µM
MDA-MB-468
  GI50: 0.133 µM
  TGI (total growth inhibition): 0.424^d μM
MDA-MB-231
  inhibition at 1 µM: ~100%
UACC-257
  GI50: 2.7 µM
MDA-MB-435
  GI50: 0.0943 µM
  TGI (total growth inhibition): 0.283^d μM
SR
  GI50: 0.0598 µM
T-47D
  GI50: > 10 µM
NCI/ADR-RES
  GI50: 0.177 µM
  TGI (total growth inhibition): 1.21 µM

## Nc1n[nH]c2cc(F)c([C@@H]3Nc4c(F)cc5[nH]ncc5c4[C@H]4[C@@H]5CC[C@@H](C5)[C@H]43)cc12 (stereo in doubt) [Compound 23, 6-Fluoro-5-(5-fluoro-6,7,7a,8,9,10,11,11a-octahydro-3H-8,11-methanopyrazolo[4,3-a]phenanthridin-7-yl)-1H-indazol-3-amine]
SF-295
  GI50: 0.0915 µM
  TGI (total growth inhibition): 3.99 µM
K-562
  GI50: 0.11 µM
MCF7
  GI50: 0.131 µM
  TGI (total growth inhibition): 8.33 µM
A498
  TGI (total growth inhibition): 0.2 µM
  GI50: 0.069 µM
SF-539
  GI50: 0.0852 µM
  TGI (total growth inhibition): 0.270 µM
Ovcar-4
  GI50: 1.17 µM
TK-10
  GI50: 5.72 µM
Ovcar-3
  GI50: 0.103 µM
  TGI (total growth inhibition): 4.10 µM
SK-MEL-28
  GI50: 3.68 µM
NCI60 cell lines
  GI50: ≥ 0.03 µM
NCI-H522
  GI50: 0.105 µM
  TGI (total growth inhibition): 6.60 µM
Ovcar-8
  GI50: 0.142 µM
MDA-MB-468
  GI50: 0.0865 µM
UACC-257
  GI50: 5.66 µM
MDA-MB-435
  GI50: 0.0846 µM
  TGI (total growth inhibition): 0.231 µM
SR
  GI50: 0.131 µM
T-47D
  GI50: > 10 µM
NCI/ADR-RES
  GI50: 0.15 µM
  TGI (total growth inhibition): 5.81 µM
